The target of assay [1] is T1, rM3Ds (Rattus norvegicus, UniProt P08483, A177S/A238G/A489L/DEL261-437/DEL441-478/E258S/I253V/I483M/INS256[…]/K178L/K182A/K255R/K484R/K486H/L173F/L482A/M480V/R171S/R176Q/R179M/S481M/T174R/T181R/T257A/Y148C).
T1 construct: host or cells: HEK293T
T1 sequence (P08483 with tags, fused parts or gaps Y148C/R171S/L173F/T174R/R176Q/A177S/K178L/R179M/T181R/K182A/A238G/I253V/K255R/INS256[…]/T257A/E258S/DEL261-437/DEL441-478/M480V/S481M/L482A/I483M/K484R/K486H/A489L): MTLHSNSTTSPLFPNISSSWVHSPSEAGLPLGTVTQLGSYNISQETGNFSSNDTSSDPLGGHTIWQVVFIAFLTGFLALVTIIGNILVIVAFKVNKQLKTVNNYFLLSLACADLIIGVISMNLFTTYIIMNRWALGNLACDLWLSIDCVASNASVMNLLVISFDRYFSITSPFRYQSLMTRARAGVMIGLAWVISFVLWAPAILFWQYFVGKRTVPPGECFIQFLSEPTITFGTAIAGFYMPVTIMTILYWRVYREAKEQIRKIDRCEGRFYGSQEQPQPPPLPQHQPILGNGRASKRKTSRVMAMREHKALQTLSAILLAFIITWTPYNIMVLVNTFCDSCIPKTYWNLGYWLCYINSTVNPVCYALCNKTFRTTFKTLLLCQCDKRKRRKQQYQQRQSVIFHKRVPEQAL
In words: cAMP assay (CRE-luciferase reporter) in HEK293T cells expressing rM3Ds. Type of assay: cell-based. Conditions: CNO on rM3Ds, HEK293T, 6 h, firefly/renilla luciferase ratio.

Assay [2] has as its system mice. Briefly: Open field test after unilateral AAV8R12-G88P7-hM3Ds-2A-EYFP injection into the SNr. The class given is in vivo, mouse. The conditions noted are these: CNO 0.3 mg/kg intraperitoneal vs saline, unilateral hM3Ds in D1-MSNs. The method, then:
(§1) Animals were anesthetized via intraperitoneal injection of pentobarbital sodium (Sigma) and placed into a stereotactic frame (RWD Instruments). An incision was made to expose the skull and locate the site above the SNr (from bregma: AP –3.4 mm, ML 1.3 mm, DV –4.8 mm). A hole in the skull was drilled above the SNr using an electrodrill (RWD Instruments). The AAV8R12-G88P7-hM3Ds-2A-EYFP vector (200 nL volume) was injected using a 10 μL 33-Gauge Hamilton syringe at a rate of 20 nL/min. The syringe was withdrawn 10 min after finishing injection. Behavioral experiments are performed at least 3 weeks after virus injection.
Mice were tested in an open field box arena with length, width and height of 50 × 50 × 50 cm. The animals underwent 3 days of habituation to the environment and experimenter and 1 day of habituation to the test apparatus. On the test day, the animals were injected with saline or CNO (0.3 mg/kg). The animals were placed into the test box 30 min after injection and video was recorded for 10 min. The number of rotations, distance traveled, and time spent immobile were then quantified using Anymaze software and the video recordings.

The subject of assay [3] is PD mice. In words: Open field test in 6-OHDA PD mice with bilateral AAV8R12-G88P7-hM3Ds-2A-EYFP. The conditions noted are these: CNO 0.3 mg/kg. Type of assay: in vivo, mouse. The method, then: as §1
A PD mouse model was generated using 6-OHDA. Desipramine (Sigma) was administrated (25 mg/kg) via intraperitoneal injection 30 min before a 6-OHDA injection. The stereotactic injection procedure was identical to the AAV injection described above. A volume of 800 nL 6-OHDA (5 mg/mL) was injected into each side of striatum (from bregma: AP 0.5 mm, ML ±1.5 mm, DV –3.2 mm) at a rate of 100 nL/min. […]
Mice were tested in an open field box arena with length, width and height of 50 × 50 × 50 cm. […] The animals were placed into the test box 30 min after injection and video was recorded for 10 min. The number of rotations, distance traveled, and time spent immobile were then quantified using Anymaze software and the video recordings.

Assay [4] concerns the target hM3Ds-M2 (Q402R) (Homo sapiens, UniProt P20309, A178S/A239G/A490L/DEL258-409/DEL413-482/I254V/INS485[…]/K179L/K183A/K256R/K487Q/L174F/L483Q/Q562R/R172S/R177Q/R180L/T175R/T182R/Y149C/Y255F). The conditions noted are these: CNO at 10 μM, compared to hM3Ds. The method, then: (§2) As for the cAMP assay, HEK293T cells (ATCC) were seeded in 6-well plate with DMEM containing 10% fetal bovine serum. Upon reaching ~80% confluency, cells were transfected with DREADDs plasmids (30 ng), pCRE-Luc (GeneBank accession: AF053461.1, 600 ng) and pRL-SV40 (GeneBank accession: AF025845.2, 150 ng). The following day, cells were redistributed from 6-well plates to white opaque 96-well plates pre-coated with poly-L-lysine (Solarbio).
(§3) The plates were then placed back in the cell incubator for 6 h. The cAMP level was detected using a Dual Glo Luciferase Reporter Gene Assay Kit (YEASEN) following the manufacturer’s protocol. The data of each well was presented as the ratio of firefly luciferase luminescence to renilla luciferase luminescence.

For assay [5], the target named is hM3Ds-M3 (D404G) (Homo sapiens, UniProt P20309, A178S/A239G/A490L/D564G/DEL258-409/DEL413-482/I254V/INS485[…]/K179L/K183A/K256R/K487Q/L174F/L483Q/R172S/R177Q/R180L/T175R/T182R/Y149C/Y255F). Conditions: CNO at 10 μM, compared to hM3Ds. How it is done: as §2, §3
In assay [6] the target is hM3Ds-M4 (K405R) (Homo sapiens, UniProt P20309, A178S/A239G/A490L/DEL258-409/DEL413-482/I254V/INS485[…]/K179L/K183A/K256R/K487Q/K565R/L174F/L483Q/R172S/R177Q/R180L/T175R/T182R/Y149C/Y255F). The conditions noted are these: CNO at 10 μM, compared to hM3Ds. How it is done:
as §2, §3

Assay [7] addresses hM3Ds-M5 (K406R) (Homo sapiens, UniProt P20309, A178S/A239G/A490L/DEL258-409/DEL413-482/I254V/INS485[…]/K179L/K183A/K256R/K487Q/K566R/L174F/L483Q/R172S/R177Q/R180L/T175R/T182R/Y149C/Y255F). The conditions noted are these: CNO at 10 μM, compared to hM3Ds. How it is done:
as §2, §3

The target in assay [8] is hM3Ds-M6 (K407R) (Homo sapiens, UniProt P20309, A178S/A239G/A490L/DEL258-409/DEL413-482/I254V/INS485[…]/K179L/K183A/K256R/K487Q/K567R/L174F/L483Q/R172S/R177Q/R180L/T175R/T182R/Y149C/Y255F). Conditions: CNO at 10 μM, compared to hM3Ds. The method, then: as §2, §3
Sequence of hM3Ds-M6 (K407R) (P20309 with tags, fused parts or gaps with the stated changes): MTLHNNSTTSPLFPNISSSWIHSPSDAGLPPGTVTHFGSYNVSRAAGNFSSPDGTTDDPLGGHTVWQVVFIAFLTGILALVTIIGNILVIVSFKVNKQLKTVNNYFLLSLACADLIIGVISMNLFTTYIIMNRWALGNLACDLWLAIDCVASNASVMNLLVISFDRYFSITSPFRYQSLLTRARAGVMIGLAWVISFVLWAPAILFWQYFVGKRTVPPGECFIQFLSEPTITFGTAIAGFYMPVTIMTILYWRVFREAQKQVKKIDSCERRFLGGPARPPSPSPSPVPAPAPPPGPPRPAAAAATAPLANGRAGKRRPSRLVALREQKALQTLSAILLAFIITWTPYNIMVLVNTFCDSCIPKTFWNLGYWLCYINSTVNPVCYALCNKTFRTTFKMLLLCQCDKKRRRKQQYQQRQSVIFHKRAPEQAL

Sequence of hM3Ds-M4 (K405R) (P20309 with tags, fused parts or gaps with the stated changes): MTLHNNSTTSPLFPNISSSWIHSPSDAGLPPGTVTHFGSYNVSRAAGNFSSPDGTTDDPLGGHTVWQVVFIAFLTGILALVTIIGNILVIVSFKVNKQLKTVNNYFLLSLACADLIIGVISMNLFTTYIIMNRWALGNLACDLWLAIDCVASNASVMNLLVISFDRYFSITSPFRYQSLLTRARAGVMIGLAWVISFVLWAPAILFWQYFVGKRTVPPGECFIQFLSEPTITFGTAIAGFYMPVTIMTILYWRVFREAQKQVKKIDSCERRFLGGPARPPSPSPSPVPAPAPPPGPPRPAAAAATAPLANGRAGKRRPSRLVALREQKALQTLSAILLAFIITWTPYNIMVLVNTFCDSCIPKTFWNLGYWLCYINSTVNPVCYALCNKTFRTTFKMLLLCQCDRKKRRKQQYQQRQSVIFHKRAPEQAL
Sequence of hM3Ds-M3 (D404G) (P20309 with tags, fused parts or gaps with the stated changes): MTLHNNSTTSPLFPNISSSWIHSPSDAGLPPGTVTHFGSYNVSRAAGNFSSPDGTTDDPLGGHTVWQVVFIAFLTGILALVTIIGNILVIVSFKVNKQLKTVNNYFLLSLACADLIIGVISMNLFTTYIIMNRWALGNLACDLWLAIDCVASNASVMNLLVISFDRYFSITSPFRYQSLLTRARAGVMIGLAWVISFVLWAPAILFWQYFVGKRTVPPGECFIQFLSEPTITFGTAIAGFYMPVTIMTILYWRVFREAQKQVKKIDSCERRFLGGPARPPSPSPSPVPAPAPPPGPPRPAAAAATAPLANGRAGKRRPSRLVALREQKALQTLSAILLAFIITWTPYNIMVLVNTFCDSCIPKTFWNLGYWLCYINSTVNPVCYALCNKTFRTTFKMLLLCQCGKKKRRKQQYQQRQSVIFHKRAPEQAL
Sequence of hM3Ds-M5 (K406R) (P20309 with tags, fused parts or gaps with the stated changes): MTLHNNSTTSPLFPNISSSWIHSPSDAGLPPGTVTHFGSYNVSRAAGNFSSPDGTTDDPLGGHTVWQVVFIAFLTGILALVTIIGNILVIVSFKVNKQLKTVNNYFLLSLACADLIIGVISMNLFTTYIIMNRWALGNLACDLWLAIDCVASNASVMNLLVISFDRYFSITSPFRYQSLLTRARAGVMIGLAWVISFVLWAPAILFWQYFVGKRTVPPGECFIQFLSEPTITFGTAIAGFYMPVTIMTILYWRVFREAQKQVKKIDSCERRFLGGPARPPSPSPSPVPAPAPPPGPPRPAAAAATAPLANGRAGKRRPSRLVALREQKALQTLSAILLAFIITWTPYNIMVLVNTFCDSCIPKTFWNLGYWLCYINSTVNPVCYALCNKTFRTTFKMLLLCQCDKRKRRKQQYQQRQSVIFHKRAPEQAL
Sequence of hM3Ds-M2 (Q402R) (P20309 with tags, fused parts or gaps with the stated changes): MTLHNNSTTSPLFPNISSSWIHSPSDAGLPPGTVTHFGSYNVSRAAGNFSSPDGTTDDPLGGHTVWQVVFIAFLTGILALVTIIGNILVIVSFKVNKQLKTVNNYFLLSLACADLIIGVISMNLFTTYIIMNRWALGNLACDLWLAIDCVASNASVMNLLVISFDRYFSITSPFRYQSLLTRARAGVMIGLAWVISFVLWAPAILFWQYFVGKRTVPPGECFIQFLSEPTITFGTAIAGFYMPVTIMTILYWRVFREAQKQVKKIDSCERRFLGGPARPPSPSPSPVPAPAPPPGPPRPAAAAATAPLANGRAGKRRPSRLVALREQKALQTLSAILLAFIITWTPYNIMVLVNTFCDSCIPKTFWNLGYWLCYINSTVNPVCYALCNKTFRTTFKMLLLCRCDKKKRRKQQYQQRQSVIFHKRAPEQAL

With `C[N+]1([O-])CCN(C2=Nc3cc(Cl)ccc3Nc3ccccc32)CC1` [CNO, clozapine N-oxide], the half-maximal effective concentration (EC50) in assay [1] came to 2.39 ± 0.25 nM. For the same compound, the contralateral rotation entry in assay [2] is on record as “more contralateral rotation”. Besides, the total distance traveled entry in assay [2] was “no difference”. The mean distance traveled result in assay [3] was “reversed”. The time spent immobile result in assay [3] is “reversed”. The “fold change in luciferase activity” value in assay [4], in assay [5], in assay [6], in assay [7] and in assay [8] was “reduced luciferase activity compared to hM3Ds” each time.

Source of the values: paper PMC12015759, “A humanized Gs-coupled DREADD for circuit and behavior modulation” (Frontiers in Cellular Neuroscience, 2025).
